Read-outs that look alike come from different tables or passages of the source.
System: classical pathway
Experiment: Classical pathway-specific ELISA-based complement inhibition assay (C4b deposition, IgM-coated plate, human serum)
Format: biochemical
Details: for IC50: non-linear regression; for inhibition of classical pathway (C4b deposition) relative to non-binding control compound: single 500 µM concentration, triplicate, 1% normal human serum, unpaired t-test p < 0.05
Method: To carry out classical pathway ELISA-based inhibition assays, IgM was dissolved in coating buffer (100 mM Na2CO3/NaHCO3, pH 9.6) to a final concentration of 3 µg/mL and was dispensed into 96-well plates at 100 µL per well. Mannan was dissolved to 2 µg/mL and lipopolysaccharides (LPS) were dissolved to 10 µg/mL in coating buffer for use in lectin and alternative pathway inhibition assays, respectively. Immobilization was allowed to proceed overnight at 25 °C. The immobilization reagent was then removed, followed by three washes in washing buffer (50 mM Tris pH 8.0, 200 mM NaCl, 0.05% (v/v) Tween-20), and blocked using 100 µL of 1% (w/v) bovine serum albumin in PBS-T for 1 h at 37°C. Blocking buffer was removed and plates were washed three times in washing buffer. Next, 500 µM of each compound, 5% (v/v) DMSO, and 1% (v/v) normal human serum (Innovative Research) (final concentrations) were dissolved in classical/lectin pathway ELISA buffer (20 mM HEPES (pH 7.3), 0.1% (w/v) gelatin, 140 mM NaCl, 2 mM CaCl2, 0.5 mM MgCl2) and added to the IgM-coated plate for 1 h at 37 °C. For the lectin pathway-specific ELISAs shown in Figure 5D, we used C1q-depleted serum from CompTech at 2% (v/v) and thus the classical pathway assays for this analysis were also performed using serum from CompTech at 2% (v/v). For the alternative pathway, 20% (v/v) normal human serum (CompTech) (final concentration) and alternative pathway ELISA buffer (20 mM HEPES, (pH 7.5), 0.1% (w/v) gelatin, 140 mM NaCl, 2 mM CaCl2, 0.5 mM MgCl2) were used in place of classical/lectin pathway ELISA buffer. Plates were then washed three times in wash buffer and each well was filled with 100 µL of α-C4 (HYB 162-02, Santa Cruz Biotechnology) diluted 1:300 for classical and lectin pathway assays and 100 µL of C3b (WM-1, Sigma) diluted 1:300 for alternative pathway assays. Plates were again incubated at 37 °C for 1 h, washed three times, filled with 100 µL of HRP-conjugated goat-α-mouse secondary antibody (diluted 1:3000) (Thermo Scientific, Waltham, MA, USA), and rocked gently for 1 h at 25 °C. After three more washes, 50 µl of substrate (1-step Ultra TMB, Thermo Scientific, Waltham, MA, USA) was added to each well and rocked for 15 min in the dark at 25 °C. The reaction was stopped with 50 µL of 0.16 M sulfuric acid, and the plate was read at 450 nm using an EnSight multimode plate reader (Perkin-Elmer). Each column contained a positive control for full complement activity (5% (v/v) blank DMSO with 1% (v/v) serum) and a negative control for no complement activity (5% (v/v) blank DMSO and no serum). Positive controls (1% (v/v) serum, no inhibitor) were defined as 100% C4b or C3b signal whereas negative controls (no serum) were defined as 0% C4b or C3b signal for each column. Compounds that inhibited complement deposition relative to the control were then evaluated using the same assay setup across a two-fold variable concentration series for each compound (7.8–500 µM). […] All experiments were performed no less than three times.
Statistical analyses were performed using GraphPad Prism version 8. For complement inhibition assays, measures of statistical significance for single-dose experiments were assessed using unpaired Student’s t-tests compared to no inhibitor controls (pathway ELISAs) or non-binding control compounds (classical pathway ELISA). Statistical significance was defined as p < 0.05. Calculation of IC50 values from dose-dependent complement assays were obtained by non-linear regression analysis using a using an inhibitor vs. response model and with 95% confidence intervals reported. For non-linear regression analyses, the top and bottom of each curve were constrained to 100 and 0, respectively.

[1] = dose-response 7.8–500 µM, top and bottom constrained to 100 and 0, read-out: IC50, classical pathway-specific ELISA
[2] = n = 9 (CMP-1611), n = 7 (CMP-1696), read-out: 95% confidence interval of IC50, classical pathway-specific ELISA

Row | IC50 [1] | IC50 [2] | SMILES | inhibition of classical pathway (C4b deposition) relative to non-binding control compound
1 | 520 µM | 410 to 680 µM | COCc1nc(-c2ccc(OC3CNC3)cc2)no1 [CMP-1696] | statistically significant inhibitory activity
2 | 660 µM | 560 to 790 µM | CN(C)c1cc(N2CCCC(N)C2)ncn1 (stereo not drawn) [CMP-1611] | statistically significant inhibitory activity

Reference: article PMC7504721, “Targeting the Initiator Protease of the Classical Pathway of Complement Using Fragment-Based Drug Discovery” (Molecules, 2020)
